From US6610675B1 (priority 1980, dated 2003)
Blank lines part the entries; values can stand above or below the compound they belong to.

How the values were obtained:
thymus weight in rats = experiment: Thymus inhibition testing (subcutaneous administration); type: in vivo, rat
Description: Several further studies were undertaken to determine the effects of selected compounds of the invention on thymi weights in rats when the drugs were systemically administered. In each of these studies, male Sprague-Dawley rats were used. […] On the fifth day (48 hours following the last treatment), the animals were sacrificed and the thymi weights were recorded. […] It is evident that the higher the inhibition of thymus activity at a given dose, the more toxic the compound is.

[1] = test system: granulation tissue formation caused by implantation of cotton pellets; experiment: Granuloma formation test (local cotton pellet granuloma assay); type: in vivo, rat; conditions: for ED60: dose causing 60% inhibition of granulation tissue weight
Description: The test compound was dissolved in acetone and aliquots of varying concentrations were injected into cotton pellets. The pellets were dried and then one pellet was implanted beneath the skin of each test rat. Six days later, the animals were sacrificed and the granulation tissue (granuloma) which formed in and around the implanted pellet was removed, dried and weighed. In addition, the thymi and adrenals were removed and weighed.

[2] = rat, in vivo, sc, 0.003 mg/kg/day
[3] = rat, in vivo, sc, 0.01 mg/kg/day
[4] = rat, in vivo, sc, 0.03 mg/kg/day
[5] = rat, in vivo, sc, 0.1 mg/kg/day
[6] = rat, in vivo, sc, 0.3 mg/kg/day
[7] = dose causing 50% inhibition of granulation tissue weight
[8] = Table VII, 3 mg/kg/day s.c., three days
[9] = Table VII, 10 mg/kg/day s.c., three days
[10] = Table VII, 30 mg/kg/day s.c., three days
[11] = Table VII, 100 mg/kg/day s.c., three days
[12] = Table X, betamethasone 17-valerate = 1
[13] = chloromethyl 11β-hydroxy-17α-isopropoxycarbonyloxyandrost-4-en-3-one-17β-carboxylate = 1

Relative Potency (TED40) (thymus weight in rats; rat, in vivo): 8.6 | Relative Potency (TED50) (thymus weight in rats; rat, in vivo): 11.2 | TED40 (thymus weight in rats; rat, in vivo, sc): 0.035 mg | TED50 (thymus weight in rats; rat, in vivo, sc): 0.052 mg | Thymus wt. (thymus weight in rats; [2]): 537 ± 28 mg | Thymus wt. Inhibition (thymus weight in rats; [2]): 2.4% | Thymus wt. (thymus weight in rats; [3]): 498 ± 15 mg | Thymus wt. Inhibition (thymus weight in rats; [3]): 9.5% | Thymus wt. (thymus weight in rats; [4]): 363 ± 22 mg | Thymus wt. Inhibition (thymus weight in rats; [4]): 34.0% | Thymus wt. (thymus weight in rats; [5]): 149 ± 9 mg | Thymus wt. Inhibition (thymus weight in rats; [5]): 72.9% | Thymus wt. (thymus weight in rats; [6]): 63 ± 3 mg | Thymus wt. Inhibition (thymus weight in rats; [6]): 88.5% | Body wt. gain ([1]; Table V-a, 1 μg/pellet): 33.0 ± 1.2 g | Thymus wt. ([1]; Table V-a, 1 μg/pellet): 478 ± 22 mg | Thymus wt. (Decrease %) ([1]; Table V-a, 1 μg/pellet): (3.4) % | Body wt. gain ([1]; Table V-a, 3 μg/pellet): 24.9 ± 1.8 g | Thymus wt. ([1]; Table V-a, 3 μg/pellet): 449 ± 21 mg | Thymus wt. (Decrease %) ([1]; Table V-a, 3 μg/pellet): (9.3) % | Body wt. gain ([1]; Table V-a, 10 μg/pellet): 25.0 ± 2.1 g | Thymus wt. ([1]; Table V-a, 10 μg/pellet): 322 ± 22 mg | Thymus wt. (Decrease %) ([1]; Table V-a, 10 μg/pellet): (34.9) % | Body wt. gain ([1]; Table V-a, 30 μg/pellet): 24.8 ± 1.1 g | Thymus wt. ([1]; Table V-a, 30 μg/pellet): 174 ± 26 mg | Thymus wt. (Decrease %) ([1]; Table V-a, 30 μg/pellet): (64.8) % | Body wt. gain ([1]; Table V-a, 100 μg/pellet): 15.9 ± 1.0 g | Thymus wt. ([1]; Table V-a, 100 μg/pellet): 84 ± 3 mg | Thymus wt. (Decrease %) ([1]; Table V-a, 100 μg/pellet): (83.0) %
Structure (SMILES): CCC(=O)O[C@]1(C(=O)CCl)[C@@H](C)C[C@H]2[C@@H]3CCC4=CC(=O)C=C[C@]4(C)[C@@]3(F)[C@@H](O)C[C@@]21C [Clobetasol 17-propionate, reference compound]
Body weight gain (thymus weight in rats; [2]): 18.3 ± 0.6 g | Body weight gain (thymus weight in rats; [3]): 15.5 ± 1.1 g | Body weight gain (thymus weight in rats; [4]): 12.3 ± 1.3 g | Body weight gain (thymus weight in rats; [5]): -0.4 ± 1.3 g | Body weight gain (thymus weight in rats; [6]): -14.3 ± 1.3 g | Granulation tissue Dry wt. ([1]; Table V-a, 1 μg/pellet): 42.0 ± 5.8 mg | Granulation tissue Dry wt. Inhibition ([1]; Table V-a, 1 μg/pellet): 47.6% | Granulation tissue Wet wt. ([1]; Table V-a, 1 μg/pellet): 401 ± 29 mg | Granulation tissue Wet wt. Inhibition ([1]; Table V-a, 1 μg/pellet): 23.6% | Granulation tissue Dry wt. ([1]; Table V-a, 3 μg/pellet): 43.1 ± 8.9 mg | Granulation tissue Dry wt. Inhibition ([1]; Table V-a, 3 μg/pellet): 46.2% | Granulation tissue Wet wt. ([1]; Table V-a, 3 μg/pellet): 402 ± 40 mg | Granulation tissue Wet wt. Inhibition ([1]; Table V-a, 3 μg/pellet): 23.4% | Granulation tissue Dry wt. ([1]; Table V-a, 10 μg/pellet): 37.9 ± 6.8 mg | Granulation tissue Dry wt. Inhibition ([1]; Table V-a, 10 μg/pellet): 52.7% | Granulation tissue Wet wt. ([1]; Table V-a, 10 μg/pellet): 364 ± 25 mg | Granulation tissue Wet wt. Inhibition ([1]; Table V-a, 10 μg/pellet): 30.7% | Granulation tissue Dry wt. ([1]; Table V-a, 30 μg/pellet): 25.5 ± 2.1 mg | Granulation tissue Dry wt. Inhibition ([1]; Table V-a, 30 μg/pellet): 68.2% | Granulation tissue Wet wt. ([1]; Table V-a, 30 μg/pellet): 320 ± 10 mg | Granulation tissue Wet wt. Inhibition ([1]; Table V-a, 30 μg/pellet): 39.0% | Granulation tissue Dry wt. ([1]; Table V-a, 100 μg/pellet): 23.9 ± 3.3 mg | Granulation tissue Dry wt. Inhibition ([1]; Table V-a, 100 μg/pellet): 70.2% | Granulation tissue Wet wt. ([1]; Table V-a, 100 μg/pellet): 325 ± 12 mg | Granulation tissue Wet wt. Inhibition ([1]; Table V-a, 100 μg/pellet): 38.1% | ED50 [1, 7]: >3 μg/pellet | ED60 [1]: >10 μg/pellet

Structure (SMILES): CC(C)OC(=O)O[C@]1(C(=O)OCCl)CC[C@H]2[C@@H]3CCC4=CC(=O)C=C[C@]4(C)[C@H]3[C@@H](O)C[C@@]21C [chloromethyl 11β-hydroxy-17α-isopropoxycarbonyloxy-androsta-1,4-dien-3-one-17β-carboxylate]
Body weight gain (thymus weight in rats; [8]): 9.0 ± 0.9 g | Thymus (thymus weight in rats; [8]): 377 ± 16 mg | Thymus Inhibition (thymus weight in rats; [8]): 20.0% | Body weight gain (thymus weight in rats; [9]): 6.2 ± 0.7 g | Thymus (thymus weight in rats; [9]): 312 ± 23 mg | Thymus Inhibition (thymus weight in rats; [9]): 33.8% | Body weight gain (thymus weight in rats; [10]): 4.8 ± 1.4 g | Thymus (thymus weight in rats; [10]): 257 ± 24 mg | Thymus Inhibition (thymus weight in rats; [10]): 45.4% | Body weight gain (thymus weight in rats; [11]): 0.3 ± 1.6 g | Thymus (thymus weight in rats; [11]): 161 ± 19 mg | Thymus Inhibition (thymus weight in rats; [11]): 65.8% | Relative Potency (TED40) (thymus weight in rats; [12]): 0.02 | Relative Potency (TED50) (thymus weight in rats; [12]): 0.02 | TED40 (thymus weight in rats; Table X, dose required to achieve 40% inhibition of thymi weight, subcutaneous): 16.2 mg | TED50 (thymus weight in rats; Table X, dose required to achieve 50% inhibition of thymi weight, subcutaneous): 35.3 mg | Relative Potency (TED40) (thymus weight in rats; Table XII, hydrocortisone 17-butyrate = 1): 1/12 | TED40 (thymus weight in rats; Table XII, thymus inhibition effect, subcutaneously): 16.2 mg/kg | Body wt. gain ([1]; Table IV, 30 μg/pellet): 32.4 ± 1.2 g | Granulation tissue Dry wt. ([1]; Table IV, 30 μg/pellet): 51.0 ± 2.8 mg | Granulation tissue Dry wt. Inhibition ([1]; Table IV, 30 μg/pellet): 37.2% | Granulation tissue Wet wt. ([1]; Table IV, 30 μg/pellet): 432 ± 15 mg | Granulation tissue Wet wt. Inhibition ([1]; Table IV, 30 μg/pellet): 23.7% | Thymus wt. ([1]; Table IV, 30 μg/pellet): 523 ± 26 mg | Body wt. gain ([1]; Table IV, 100 μg/pellet): 35.0 ± 1.5 g | Granulation tissue Dry wt. ([1]; Table IV, 100 μg/pellet): 41.1 ± 5.8 mg | Granulation tissue Dry wt. Inhibition ([1]; Table IV, 100 μg/pellet): 49.4% | Granulation tissue Wet wt. ([1]; Table IV, 100 μg/pellet): 417 ± 27 mg | Granulation tissue Wet wt. Inhibition ([1]; Table IV, 100 μg/pellet): 26.3% | Thymus wt. ([1]; Table IV, 100 μg/pellet): 537 ± 31 mg | Body wt. gain ([1]; Table IV, 300 μg/pellet): 34.4 ± 1.1 g | Granulation tissue Dry wt. ([1]; Table IV, 300 μg/pellet): 38.1 ± 5.9 mg | Granulation tissue Dry wt. Inhibition ([1]; Table IV, 300 μg/pellet): 53.1% | Granulation tissue Wet wt. ([1]; Table IV, 300 μg/pellet): 369 ± 18 mg | Granulation tissue Wet wt. Inhibition ([1]; Table IV, 300 μg/pellet): 34.8% | Thymus wt. ([1]; Table IV, 300 μg/pellet): 525 ± 28 mg | Body wt. gain ([1]; Table IV, 1000 μg/pellet): 29.4 ± 1.5 g | Granulation tissue Dry wt. ([1]; Table IV, 1000 μg/pellet): 18.5 ± 2.4 mg | Granulation tissue Dry wt. Inhibition ([1]; Table IV, 1000 μg/pellet): 77.2% | Granulation tissue Wet wt. ([1]; Table IV, 1000 μg/pellet): 289 ± 12 mg | Granulation tissue Wet wt. Inhibition ([1]; Table IV, 1000 μg/pellet): 48.9% | Thymus wt. ([1]; Table IV, 1000 μg/pellet): 423 ± 26 mg | ED50 ([1]; Table XII, anti-inflammatory effect in cotton pellet granuloma): 119 μg/pellet | Relative potency (ED40) [1, 13]: 6.5 | Relative potency (ED60) [1, 13]: 2.3 | ED40 ([1]; dose causing 40% inhibition of granulation tissue weight): 47 μg/pellet | ED50 [1, 7]: 119 μg/pellet | ED60 [1]: 301 μg/pellet
